Results published in ChEMBL document CHEMBL1127918, “The role of peptide bond in chemotactic for-met-leu-phe-ome focused by depsipeptide analogs” (1994).
Where a SMILES comes first, the peptide text is derived from it. [ ]: non-standard residue; d: D form. The star is where a group is joined. PhLac = O=C(O)[C@@H](O)Cc1ccccc1; NHBn = c1ccc(CN*)cc1; For = O=C*

Columns and labels:
Type in all cases: functional
[1] = organism: Homo sapiens; experiment: (§1) Chemotactic activity was expressed as percentage of random locomotion
[2] = organism: Homo sapiens; experiment: (§2) Superoxide anion release expressed as n moles of superoxide anion/2E6 neutrophils/5 min
[3] = organism: Homo sapiens; experiment: as §1; remark: listed apart in the source
[4] = organism: Homo sapiens; experiment: as §2; remark: listed apart in the source
[5] = organism: Homo sapiens; experiment: as §1; remark: listed apart in the source
[6] = organism: Homo sapiens; experiment: as §2; remark: listed apart in the source
[7] = organism: Homo sapiens; experiment: lysozyme release expressed as percentage of total enzyme content released by 0.1% Triton X-100
[8] = organism: Homo sapiens; experiment: Chemotactic activity was expressed as percentage of random locomotion of human neutrophils
[9] = organism: Homo sapiens; experiment: Chemotactic activity was expressed as percentage of random locomotion human neutrophils

SMILES	Chemotactic activity (% of random locomotion) [1]	Superoxide anion release [2]	Chemotactic activity (% of random locomotion) [3]	Superoxide anion release [4]	Chemotactic activity (% of random locomotion) [5]	chemotactic activity (% of random locomotion) at 10^-8 M [5]	Superoxide anion release [6]	Superoxide anion release at 10^-8 M [6]	Log [-5] [7]	Log [-6] [7]	Log [-7] [7]	Log [-8] [7]	Chemotactic activity at 10^-10 M (% of random locomotion) [8]	Log [-9] [8]	Log [-9] [9]
COC(=O)[C@H](Cc1ccccc1)NC(=O)[C@H](CC(C)C)NC(=O)[C@H](CCSC)NC=O	36	37	62	43	85	105	44	7	62	67	59	54	105	115	–
CSCC[C@H](NC=O)C(=O)N[C@@H](CC(C)C)C(=O)O[C@@H](Cc1ccccc1)C(=O)NCc1ccccc1 (For-Met-Leu-[PhLac]-NHBn)	20	32	55	24	51	51	14	8	40	38	35	24	62	54	–
COC(=O)[C@H](Cc1ccccc1)NC(=O)C(C)(N)COC(=O)[C@H](CCSC)NC=O (stereo partly specified)	4	0	7	0	14	14	0	0	15	13	11	15	10	9	–
COC(=O)[C@H](Cc1ccccc1)NC(=O)[C@H](CC(C)C)OC(=O)[C@H](CCSC)NC=O	10	0	9	0	13	8	0	0	10	12	10	11	0	–	11
